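The compound was tested at five concentrations on cells cultured in 96-well plates, with a 48-hour exposure period. GI50 is the concentration that inhibits growth by half.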 Active and inactive are the calls of the source. Rule as the data show it: active = GI50 up to about 1.1 µM and inactive = higher.
What was measured:
Experiment in all cases: NCI anticancer screen, dose series, 48 h
CAKI-1 = system: CAKI-1
SW-620 = system: SW-620
SNB-19 = system: SNB-19
UACC-257 = system: UACC-257
SK-MEL-28 = system: SK-MEL-28
SF-268 = system: SF-268
RXF 393 = system: RXF 393
TK-10 = system: TK-10
HL-60 = system: HL-60
786-0 = system: 786-0
PC-3 = system: PC-3
OVCAR-5 = system: OVCAR-5
SK-OV-3 = system: SK-OV-3
MDA-N = system: MDA-N
K562 = system: K562
EKVX = system: EKVX
LOX IMVI = system: LOX IMVI
RPMI-8226 = system: RPMI-8226
A498 = system: A498
HT-29 = system: HT-29
OVCAR-4 = system: OVCAR-4
UACC-62 = system: UACC-62
CCRF-CEM = system: CCRF-CEM
HCT-15 = system: HCT-15
HOP-92 = system: HOP-92
T47D = system: T47D
SK-MEL-2 = system: SK-MEL-2
M14 = system: M14
MDA-MB-435 = system: MDA-MB-435
DU-145 = system: DU-145
SK-MEL-5 = system: SK-MEL-5
KM12 = system: KM12
ACHN = system: ACHN
HOP-62 = system: HOP-62
NCI-H460 = system: NCI-H460
SF-539 = system: SF-539
Malme-3M = system: Malme-3M
OVCAR-8 = system: OVCAR-8
HCC 2998 = system: HCC 2998
NCI-H522 = system: NCI-H522
OVCAR-3 = system: OVCAR-3
SN12C = system: SN12C
SNB-75 = system: SNB-75
MOLT-4 = system: MOLT-4
COLO 205 = system: COLO 205
IGROV-1 = system: IGROV-1
MDA-MB-231 = system: MDA-MB-231
U-251 = system: U-251
Hs-578T = system: Hs-578T
UO-31 = system: UO-31
A549 = system: A549
MCF7 = system: MCF7
NCI-H226 = system: NCI-H226
NCI/ADR-RES = system: NCI/ADR-RES
HCT-116 = system: HCT-116
NCI-H23 = system: NCI-H23
SF-295 = system: SF-295
SR = system: SR

What does the source list for `O=C1CC2(CCCc3sccc32)C(=O)N1` (stereo not given)?
GI50 (CAKI-1): > 100 µM (inactive); GI50 (SW-620): > 100 µM (inactive); GI50 (SNB-19): > 100 µM (inactive); GI50 (UACC-257): > 100 µM (inactive); GI50 (SK-MEL-28): > 100 µM (inactive); GI50 (SF-268): > 100 µM (inactive); GI50 (RXF 393): > 100 µM (inactive); GI50 (TK-10): > 100 µM (inactive); GI50 (HL-60): > 100 µM (inactive); GI50 (786-0): > 100 µM (inactive); GI50 (PC-3): > 100 µM (inactive); GI50 (OVCAR-5): > 100 µM (inactive); GI50 (SK-OV-3): > 100 µM (inactive); GI50 (MDA-N): > 100 µM (inactive); GI50 (K562): > 100 µM (inactive); GI50 (EKVX): > 100 µM (inactive); GI50 (LOX IMVI): > 100 µM (inactive); GI50 (RPMI-8226): > 100 µM (inactive); GI50 (A498): > 100 µM (inactive); GI50 (HT-29): > 100 µM (inactive); GI50 (OVCAR-4): > 100 µM (inactive); GI50 (UACC-62): > 100 µM (inactive); GI50 (CCRF-CEM): > 100 µM (inactive); GI50 (HCT-15): > 100 µM; GI50 (HOP-92): > 100 µM (inactive); GI50 (T47D): > 100 µM (inactive); GI50 (SK-MEL-2): > 100 µM (inactive); GI50 (M14): > 100 µM (inactive); GI50 (MDA-MB-435): > 100 µM (inactive); GI50 (DU-145): > 100 µM (inactive); GI50 (SK-MEL-5): > 100 µM (inactive); GI50 (KM12): > 100 µM (inactive); GI50 (ACHN): > 100 µM (inactive); GI50 (HOP-62): > 100 µM (inactive); GI50 (NCI-H460): > 100 µM (inactive); GI50 (SF-539): > 100 µM (inactive); GI50 (Malme-3M): > 100 µM (inactive); GI50 (OVCAR-8): > 100 µM (inactive); GI50 (HCC 2998): > 100 µM (inactive); GI50 (NCI-H522): > 100 µM (inactive); GI50 (OVCAR-3): > 100 µM (inactive); GI50 (SN12C): > 100 µM (inactive); GI50 (SNB-75): > 100 µM (inactive); GI50 (MOLT-4): > 100 µM (inactive); GI50 (COLO 205): > 100 µM (inactive); GI50 (IGROV-1): > 100 µM (inactive); GI50 (MDA-MB-231): > 100 µM (inactive); GI50 (U-251): > 100 µM (inactive); GI50 (Hs-578T): > 100 µM (inactive); GI50 (UO-31): > 100 µM (inactive); GI50 (A549): > 100 µM (inactive); GI50 (MCF7): > 100 µM (inactive); GI50 (NCI-H226): > 100 µM (inactive); GI50 (NCI/ADR-RES): > 100 µM (inactive); GI50 (HCT-116): > 100 µM (inactive); GI50 (NCI-H23): > 100 µM (inactive); GI50 (SF-295): > 100 µM (inactive)

Which results are given for `CCSc1[nH]c(NC(=S)NC(=O)c2ccccc2Cl)c(C(N)=O)c1C(N)=O`?
GI50 (CAKI-1): > 10 µM (inactive); GI50 (SW-620): > 10 µM (inactive); GI50 (UACC-257): > 10 µM (inactive); GI50 (SK-MEL-28): > 10 µM (inactive); GI50 (SF-268): > 10 µM (inactive); GI50 (RXF 393): 4.2 µM (inactive); GI50 (TK-10): > 10 µM (inactive); GI50 (HL-60): > 10 µM (inactive); GI50 (786-0): > 10 µM (inactive); GI50 (PC-3): > 10 µM (inactive); GI50 (SK-OV-3): > 10 µM (inactive); GI50 (MDA-N): > 10 µM (inactive); GI50 (K562): > 10 µM (inactive); GI50 (EKVX): > 10 µM (inactive); GI50 (LOX IMVI): > 10 µM (inactive); GI50 (RPMI-8226): > 10 µM (inactive); GI50 (HT-29): > 10 µM (inactive); GI50 (OVCAR-4): > 10 µM (inactive); GI50 (UACC-62): > 10 µM (inactive); GI50 (CCRF-CEM): > 10 µM (inactive); GI50 (HCT-15): > 10 µM; GI50 (HOP-92): > 10 µM (inactive); GI50 (T47D): > 10 µM (inactive); GI50 (M14): > 10 µM (inactive); GI50 (SR): > 10 µM (inactive); GI50 (MDA-MB-435): > 10 µM (inactive); GI50 (DU-145): > 10 µM (inactive); GI50 (SK-MEL-5): > 10 µM (inactive); GI50 (KM12): > 10 µM (inactive); GI50 (HOP-62): > 10 µM (inactive); GI50 (Malme-3M): > 10 µM (inactive); GI50 (OVCAR-8): > 10 µM (inactive); GI50 (HCC 2998): > 10 µM (inactive); GI50 (SN12C): > 10 µM (inactive); GI50 (SNB-75): > 10 µM (inactive); GI50 (MOLT-4): > 10 µM (inactive); GI50 (COLO 205): > 10 µM (inactive); GI50 (IGROV-1): > 10 µM (inactive); GI50 (MDA-MB-231): > 10 µM (inactive); GI50 (A549): > 10 µM (inactive); GI50 (MCF7): > 10 µM (inactive); GI50 (NCI-H23): > 10 µM (inactive); GI50 (SF-295): > 10 µM (inactive)

From ChEMBL document CHEMBL1201862, “PubChem BioAssay data set” (2004)
